Usually Ki stands for the dissociation constant of the complex between target and ligand, obtained from inhibition or displacement.

From patent US20060128724A1, “Pyrazole-substituted aminoheteroaryl compounds as protein kinase inhibitors” (AGOURON PHARMACEUTICALS, INC., priority 2004, published 2006) come the findings set out here.

The target of the experiment is T1, c-MET (HGFR) (Homo sapiens, UniProt P08581).
T1 construct: purchased Upstate 14-526
T1 sequence (P08581 974-1390 limits assumed): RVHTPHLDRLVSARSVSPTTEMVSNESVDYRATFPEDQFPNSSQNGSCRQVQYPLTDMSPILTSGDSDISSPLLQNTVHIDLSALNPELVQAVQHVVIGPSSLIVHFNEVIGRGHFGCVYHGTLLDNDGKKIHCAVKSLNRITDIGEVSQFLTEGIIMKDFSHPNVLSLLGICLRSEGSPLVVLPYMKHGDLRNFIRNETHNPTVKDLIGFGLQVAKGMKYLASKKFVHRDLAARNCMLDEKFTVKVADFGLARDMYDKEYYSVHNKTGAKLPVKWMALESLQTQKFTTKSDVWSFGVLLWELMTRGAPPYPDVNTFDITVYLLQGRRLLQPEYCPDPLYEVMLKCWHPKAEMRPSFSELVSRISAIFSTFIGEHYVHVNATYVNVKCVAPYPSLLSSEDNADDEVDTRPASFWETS
As to the kind of experiment: HGFR Continuous-Coupled Spectrophotometric Assay. The format is biochemical. The following applies: Met-2 substrate peptide, 50 nM HGFR, 37° C.; read-out: c-Met Ki. In short, it runs like this: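 Tyrosine kinase activity of 50 nM HGFR on the activation-loop Met-2 peptide, followed as NADH consumption at 340 nm over 10 min at 37 °C in a pyruvate kinase/LDH coupled system, HEPES pH 7.5 buffer with MgCl2 and DTT.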
With `CC(Oc1cc(-c2ccn(C3CCNCC3)n2)cnc1N)c1c(Cl)ccc(F)c1Cl` (stereo not drawn) [Example 75, 3-[1-(2,6-Dichloro-3-fluoro-phenyl)-ethoxy]-5-(1-piperidin-4-yl-1H-pyrazol-3-yl)-pyridin-2-ylamine], the Ki came out at 0.038 µM. The same measure for `Cc1ccn(-c2cnc(N)c(OC(C)c3c(Cl)ccc(F)c3Cl)c2)n1` (stereo not drawn) [Example 77, 3-[1-(2,6-Dichloro-3-fluoro-phenyl)-ethoxy]-5-(3-methyl-pyrazol-1-yl)-pyridin-2-ylamine]: 1.92 µM; for `CC(Oc1cc(-n2ncc3ccccc32)cnc1N)c1c(Cl)ccc(F)c1Cl` (stereo not drawn) [Example 78, 3-[1-(2,6-Dichloro-3-fluoro-phenyl)-ethoxy]-5-indazol-1-yl-pyridin-2-ylamine]: 1.56 µM; for `CCOC(=O)c1cnn(-c2cnc(N)c(OC(C)c3c(Cl)ccc(F)c3Cl)c2)c1` (stereo not drawn) [Example 80, 1-{6-Amino-5-[1-(2,6-dichloro-3-fluoro-phenyl)-ethoxy]-pyridin-3-yl}-1H-pyrazole-4-carboxylic acid ethyl ester]: 2.05 µM.

For `CC(Oc1cc(-c2cnn(CC3CCNCC3)c2)cnc1N)c1c(Cl)ccc(F)c1Cl` (stereo not drawn) [Example 81, 3-[1-(2,6-Dichloro-3-fluoro-phenyl)-ethoxy]-5-(1-piperidin-4-ylmethyl-1H-pyrazol-4-yl)-pyridin-2-ylamine], the inhibition constant Ki was 0.056 µM.

As for `CC(Oc1cc(-c2cnn(CCN3CCNCC3)c2)cnc1N)c1c(Cl)ccc(F)c1Cl` (stereo not drawn) [Example 82, 3-[1-(2,6-Dichloro-3-fluoro-phenyl)-ethoxy]-5-[1-(2-piperazin-1-yl-ethyl)-1H-pyrazol-4-yl]-pyridin-2-ylamine], the inhibition constant (Ki) came to 0.047 µM. For the molecule `CC(Oc1cc(-c2cnn(CCO)c2)cnc1N)c1c(Cl)ccc(F)c1Cl` (stereo not drawn) [Example 83, 2-(4-{6-Amino-5-[1-(2,6-dichloro-3-fluoro-phenyl)-ethoxy]-pyridin-3-yl}-pyrazol-1-yl)-ethanol], the Ki came out at 0.046 µM. With `CC(Oc1cc(-c2cnn(CC3COCO3)c2)cnc1N)c1c(Cl)ccc(F)c1Cl` (stereo not drawn) [Example 84, 3-[1-(2,6-Dichloro-3-fluoro-phenyl)-ethoxy]-5-(1-[1,3]dioxolan-4-ylmethyl-1H-pyrazol-4-yl)-pyridin-2-ylamine], the Ki worked out at 0.061 µM. Turning to `CC(Oc1cc(-c2cnn(CC3CCN(C(=O)CO)CC3)c2)cnc1N)c1c(Cl)ccc(F)c1Cl` (stereo not drawn) [Example 85, 1-[4-(4-{6-Amino-5-[1-(2,6-dichloro-3-fluoro-phenyl)-ethoxy]-pyridin-3-yl}-pyrazol-1-ylmethyl)-piperidin-1-yl]-2-hydroxy-ethanone], the Ki was determined as 0.03 µM. In the case of `COC(=O)C1CC(n2cc(-c3cnc(N)c(OC(C)c4c(Cl)ccc(F)c4Cl)c3)cn2)CN1` (stereo not drawn) [Example 88, 4-(4-{6-Amino-5-[1-(2,6-dichloro-3-fluoro-phenyl)-ethoxy]-pyridin-3-yl}-pyrazol-1-yl)-pyrrolidine-2-carboxylic acid methyl ester], the inhibition constant (Ki) was 0.034 µM.

For the molecule `CC(Oc1cc(-c2cnn(CC3CCN(C)CC3)c2)cnc1N)c1c(Cl)ccc(F)c1Cl` (stereo not drawn) [Example 89, 3-[1-(2,6-Dichloro-3-fluoro-phenyl)-ethoxy]-5-[1-(1-methyl-piperidin-4-ylmethyl)-1H-pyrazol-4-yl]-pyridin-2-ylamine], the Ki was determined as 0.024 µM. Regarding `CNC(=O)C1CC(n2cc(-c3cnc(N)c(OC(C)c4c(Cl)ccc(F)c4Cl)c3)cn2)CN1` (stereo not drawn) [Example 90, 4-(4-{6-Amino-5-[1-(2,6-dichloro-3-fluoro-phenyl)-ethoxy]-pyridin-3-yl}-pyrazol-1-yl)-pyrrolidine-2-carboxylic acid methylamide], the Ki worked out at 0.034 µM. Under `CC(Oc1cc(-c2cnn(C3CNC(C(N)=O)C3)c2)cnc1N)c1c(Cl)ccc(F)c1Cl` (stereo not drawn) [Example 91, 4-(4-{6-Amino-5-[1-(2,6-dichloro-3-fluoro-phenyl)-ethoxy]-pyridin-3-yl}pyrazol-1-yl)-pyrrolidine-2-carboxylic acid amide] stands 0.044 µM; under `Cc1noc(C)c1Cn1cc(-c2cnc(N)c(OC(C)c3c(Cl)ccc(F)c3Cl)c2)cn1` (stereo not drawn) [Example 93, 3-[1-(2,6-dichloro-3-fluorophenyl)ethoxy]-5-{1-[(3,5-dimethylisoxazol-4-yl)methyl]-1H-pyrazol-4-yl}pyridin-2-amine], 0.069 µM; under `CC(Oc1cc(-c2cnn(C3CCN(C(=O)OC(C)(C)C)CC3)c2)cnc1N)c1c(Cl)ccc(F)c1Cl` (stereo not drawn) [Example 94, tert-butyl 4-(4-{6-amino-5-[1-(2,6-dichloro-3-fluorophenyl)ethoxy]pyridin-3-yl}-1H-pyrazol-1-yl)piperidine-1-carboxylate], 0.035 µM. The same measure for `CC(Oc1cc(-c2cnn(C3CCN(C(=O)OCCO)CC3)c2)cnc1N)c1c(Cl)ccc(F)c1Cl` (stereo not drawn) [Example 95, 2-hydroxyethyl 4-(4-{6-amino-5-[1-(2,6-dichloro-3-fluorophenyl)ethoxy]pyridin-3-yl}-1H-pyrazol-1-yl)piperidine-1-carboxylate]: 0.01 µM.

For the molecule `CC(Oc1cc(-c2cnn(C3CN(C(C)C)C3)c2)cnc1N)c1c(Cl)ccc(F)c1Cl` (stereo not drawn) [Example 97, 3-[1-(2,6-dichloro-3-fluorophenyl)ethoxy]-5-[1-(1-isopropylazetidin-3-yl)-1H-pyrazol-4-yl]pyridin-2-amine], the Ki worked out at 0.03 µM. Under `CC(Oc1cc(-c2cnn(C3CCN(CC(N)=O)CC3)c2)cnc1N)c1c(Cl)ccc(F)c1Cl` (stereo not drawn) [Example 98, 2-[4-(4-{6-amino-5-[1-(2,6-dichloro-3-fluorophenyl)ethoxy]pyridin-3-yl}-1H-pyrazol-1-yl)piperidin-1-yl]acetamide] stands 0.007 µM; under `CC(Oc1cc(-c2cnn(C3CC4CCC(C3)N4)c2)cnc1N)c1c(Cl)ccc(F)c1Cl` (stereo not drawn) [Example 99, 5-[1-(8-azabicyclo[3.2.1]oct-3-yl)-1H-pyrazol-4-yl]-3-[1-(2,6-dichloro-3-fluorophenyl)ethoxy]pyridin-2-amine], 0.005 µM.

On to `CC(Oc1cc(-c2cnn(Cc3nn[nH]n3)c2)cnc1N)c1c(Cl)ccc(F)c1Cl` (stereo not drawn) [Example 100, 3-[1-(2,6-dichloro-3-fluorophenyl)ethoxy]-5-[1-(2H-tetrazol-5-ylmethyl)-1H-pyrazol-4-yl]pyridin-2-amine], for which the Ki came out at 0.04 µM. As for `CCOC(=O)N1CCC(n2cc(-c3cnc(N)c(OC(C)c4c(Cl)ccc(F)c4Cl)c3)cn2)CC1` (stereo not drawn) [Example 101, ethyl 4-(4-{6-amino-5-[1-(2,6-dichloro-3-fluorophenyl)ethoxy]pyridin-3-yl}-1H-pyrazol-1-yl)piperidine-1-carboxylate], the inhibition constant Ki was 0.019 µM. Consider `CC(Oc1cc(-c2cnn(C3CN(CCO)C3)c2)cnc1N)c1c(Cl)ccc(F)c1Cl` (stereo not drawn) [Example 102, 2-[3-(4-{6-amino-5-[1-(2,6-dichloro-3-fluorophenyl)ethoxy]pyridin-3-yl}11H-pyrazol-1-yl)azetidin-1-yl]ethanol], for which the inhibition constant Ki came out at 0.05 µM. As to `COCCN1CC(n2cc(-c3cnc(N)c(OC(C)c4c(Cl)ccc(F)c4Cl)c3)cn2)C1` (stereo not drawn) [Example 103, 3-[1-(2,6-dichloro-3-fluorophenyl)ethoxy]-5-{1-[1-(2-methoxyethyl)azetidin-3-yl]-1H-pyrazol-4-yl}-pyridin-2-amine], the Ki worked out at 0.07 µM. The same measure for `CC(Oc1cc(-c2cnn(C3CN(S(C)(=O)=O)C3)c2)cnc1N)c1c(Cl)ccc(F)c1Cl` (stereo not drawn) [Example 104, 3-[1-(2,6-dichloro-3-fluorophenyl)ethoxy]-5-{1-[1-(methylsulfonyl)azetidin-3-yl]-1H-pyrazol-4-yl}pyridin-2-amine]: 0.036 µM.
